The values below come from article PMC8916643, “Molecular physiology of pumiliotoxin sequestration in a poison frog” (PLoS ONE, 2022).

For one series, the target named is T1, human recombinant CYP2D6 (Homo sapiens, UniProt P10635).
T1 construct: Eurofins Discovery Services (Eurofins Panlabs Inc) ran the assay
Put plainly: CYP2D6 metabolite discovery (metID). The note with it: initial concentration 10 μM. It counts as in vitro ADME. How it is done: Assays for human CYP activity (CYP phenotyping), CYP2D6 metabolite discovery (metID), ion channel inhibition (CiPA), and G-protein coupled receptor (GPCR) activity (gpcrMAX) were performed through Eurofins Discovery Services (Eurofins Panlabs Inc, St. Charles MO, USA). In the CYP phenotyping panel, human recombinant CYP1A2, CYP2B6, CYP2C8, CYP2C9, CYP2C19, CYP2D6, and CYP3A4 were included in the assay. A concentration of 1E-07 M of PTX 251D was tested, and the percent compound remaining was quantified at 0, 15, 30, 45, and 60 minutes using HPLC-MS/MS. As a positive control, a reference compound was used for each CYP tested (see S1 File for results). In the CYP2D6 metabolism assay, human recombinant CYP2D6 was incubated with an initial concentration of 10 μM and metabolites were quantified after 90 minutes using LC-MS/MS. Two replicates were used for the CYP phenotyping panel and one replicate was used for CYP2D6 metabolite assay. The CiPA assay was a cell-based QPatch on voltage-gated sodium channel NaV1.5 (peak and late/agonist), voltage-gated potassium channels Kv4.3/KChIP2, hERG, KCNQ1/minK, Kir2.1, and voltage-gated calcium channel Cav1.2. The concentrations of PTX 251D assayed were 3, 10, and 30 μM, and a reference compound for each channel was used (see S1 File for results and individual QPatch parameters). […]

The target of the next series is T2, Kir2.1 (Homo sapiens, UniProt P63252).
T2 construct: Eurofins Discovery Services (Eurofins Panlabs Inc) ran the assay
T2 sequence (P63252 1-427): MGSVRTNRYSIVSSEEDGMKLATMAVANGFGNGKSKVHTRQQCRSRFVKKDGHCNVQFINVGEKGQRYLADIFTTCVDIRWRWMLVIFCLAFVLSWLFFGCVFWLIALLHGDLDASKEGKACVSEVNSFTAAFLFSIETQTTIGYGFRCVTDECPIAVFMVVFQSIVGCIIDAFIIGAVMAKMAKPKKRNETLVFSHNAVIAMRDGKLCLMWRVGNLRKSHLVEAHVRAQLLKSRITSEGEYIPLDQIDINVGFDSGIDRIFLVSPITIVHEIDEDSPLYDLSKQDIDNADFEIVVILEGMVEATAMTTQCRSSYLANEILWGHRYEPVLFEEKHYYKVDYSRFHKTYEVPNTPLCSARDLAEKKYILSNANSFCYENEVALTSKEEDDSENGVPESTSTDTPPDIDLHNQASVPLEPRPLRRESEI
Put plainly: CiPA cell-based QPatch ion channel inhibition. The note with it: maximum concentration of 30 uM. How it is done: (§1) Assays for human CYP activity (CYP phenotyping), CYP2D6 metabolite discovery (metID), ion channel inhibition (CiPA), and G-protein coupled receptor (GPCR) activity (gpcrMAX) were performed through Eurofins Discovery Services (Eurofins Panlabs Inc, St. Charles MO, USA). In the CYP phenotyping panel, human recombinant CYP1A2, CYP2B6, CYP2C8, CYP2C9, CYP2C19, CYP2D6, and CYP3A4 were included in the assay. A concentration of 1E-07 M of PTX 251D was tested, and the percent compound remaining was quantified at 0, 15, 30, 45, and 60 minutes using HPLC-MS/MS. As a positive control, a reference compound was used for each CYP tested (see S1 File for results). In the CYP2D6 metabolism assay, human recombinant CYP2D6 was incubated with an initial concentration of 10 μM and metabolites were quantified after 90 minutes using LC-MS/MS. Two replicates were used for the CYP phenotyping panel and one replicate was used for CYP2D6 metabolite assay. The CiPA assay was a cell-based QPatch on voltage-gated sodium channel NaV1.5 (peak and late/agonist), voltage-gated potassium channels Kv4.3/KChIP2, hERG, KCNQ1/minK, Kir2.1, and voltage-gated calcium channel Cav1.2. The concentrations of PTX 251D assayed were 3, 10, and 30 μM, and a reference compound for each channel was used (see S1 File for results and individual QPatch parameters). In the gpcrMAX assay a panel of 165 GPCRs was tested through the DiscoverX PathHunter beta-arrestin enzyme fragment complementation technology, and a concentration of 10 μM PTX 251D was tested for both agonist and antagonist activity along with a reference compound for each GPCR (see S1 File for results).

In series [1] the target is T3, voltage-gated calcium channel Cav1.2 (Homo sapiens, UniProt Q13936).
T3 construct: Eurofins Discovery Services (Eurofins Panlabs Inc) ran the assay
Put plainly: CiPA cell-based QPatch ion channel inhibition. The settings on record: maximum concentration of 30 uM. How it is done:
as §1
In general terms: The patch-clamp technique gives a direct electrical read-out from membranes.

Series [2] addresses T4, voltage-gated sodium channel NaV1.5 (Homo sapiens, UniProt Q14524).
T4 construct: Eurofins Discovery Services (Eurofins Panlabs Inc) ran the assay
Put plainly: CiPA cell-based QPatch ion channel inhibition. The note with it: maximum concentration of 30 uM. How it is done: as §1

Series [3] has as its system gene expression in intestines, liver, and skin. Description: RNA sequencing, differential gene expression after PTX 251D feeding. It counts as in vivo, Dendrobates tinctorius. The text has this: Lab-reared (non-toxic) Dendrobates tinctorius were housed in terraria with live plants, a water pool, and a shelter. Ten adult females were size-matched, randomly assigned to control or experimental groups (N = 5 per group), and then housed individually. To measure the specific effects of PTX 251D compared to a background toxicity, the control group was fed 0.01% DHQ (Sigma-Aldrich, St. Louis, USA) in a solution of 1% EtOH and the experimental group was fed a solution of 0.01% DHQ and 0.01% PTX 251D (PepTech, Burlington, MA, USA) in a solution of 1% EtOH in water. Each frog was fed 15 μL each day for five days by pipetting the solution directly into the mouth between 10am-12pm. […]
RNA extraction followed the Trizol (Thermo Fisher Scientific, Waltham, MA, USA) protocol outlined in Caty et al. 2019 [16] and according to the manufacturer’s instructions. […] Libraries were quantified with quantitative PCR (NEBnext Library quantification kit, New England Biolabs, Ipswich, USA) and a Agilent Bioanalyzer High Sensitivity DNA chip, both according to manufacturer’s instructions. All libraries were pooled at equimolar amounts and were sequenced on four lanes of an Illumina HiSeq 4000 machine to obtain 150 bp paired-end reads. […]

In series [4] the test system is mammalian and insect voltage-gated sodium and potassium channels. The arrangement: method as in PMID 18061227. The note with it: 100 μM; strongest effect on hKv1.3; cited from earlier work.

T1 sequence (P10635 whole entry): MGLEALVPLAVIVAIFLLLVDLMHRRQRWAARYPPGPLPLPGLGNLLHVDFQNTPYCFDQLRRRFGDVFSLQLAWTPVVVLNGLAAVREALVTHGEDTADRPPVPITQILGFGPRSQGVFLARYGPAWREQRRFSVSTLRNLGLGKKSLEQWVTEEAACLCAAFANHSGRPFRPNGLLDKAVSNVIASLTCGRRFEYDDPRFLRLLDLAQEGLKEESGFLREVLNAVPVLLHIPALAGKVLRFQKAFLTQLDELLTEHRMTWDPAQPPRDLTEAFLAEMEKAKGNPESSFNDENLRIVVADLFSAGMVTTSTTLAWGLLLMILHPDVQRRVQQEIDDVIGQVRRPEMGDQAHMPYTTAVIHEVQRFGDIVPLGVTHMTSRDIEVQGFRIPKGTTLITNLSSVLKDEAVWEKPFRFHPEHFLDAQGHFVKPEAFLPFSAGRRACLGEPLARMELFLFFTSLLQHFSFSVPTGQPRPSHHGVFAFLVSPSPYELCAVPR
T4 sequence (Q14524 whole entry): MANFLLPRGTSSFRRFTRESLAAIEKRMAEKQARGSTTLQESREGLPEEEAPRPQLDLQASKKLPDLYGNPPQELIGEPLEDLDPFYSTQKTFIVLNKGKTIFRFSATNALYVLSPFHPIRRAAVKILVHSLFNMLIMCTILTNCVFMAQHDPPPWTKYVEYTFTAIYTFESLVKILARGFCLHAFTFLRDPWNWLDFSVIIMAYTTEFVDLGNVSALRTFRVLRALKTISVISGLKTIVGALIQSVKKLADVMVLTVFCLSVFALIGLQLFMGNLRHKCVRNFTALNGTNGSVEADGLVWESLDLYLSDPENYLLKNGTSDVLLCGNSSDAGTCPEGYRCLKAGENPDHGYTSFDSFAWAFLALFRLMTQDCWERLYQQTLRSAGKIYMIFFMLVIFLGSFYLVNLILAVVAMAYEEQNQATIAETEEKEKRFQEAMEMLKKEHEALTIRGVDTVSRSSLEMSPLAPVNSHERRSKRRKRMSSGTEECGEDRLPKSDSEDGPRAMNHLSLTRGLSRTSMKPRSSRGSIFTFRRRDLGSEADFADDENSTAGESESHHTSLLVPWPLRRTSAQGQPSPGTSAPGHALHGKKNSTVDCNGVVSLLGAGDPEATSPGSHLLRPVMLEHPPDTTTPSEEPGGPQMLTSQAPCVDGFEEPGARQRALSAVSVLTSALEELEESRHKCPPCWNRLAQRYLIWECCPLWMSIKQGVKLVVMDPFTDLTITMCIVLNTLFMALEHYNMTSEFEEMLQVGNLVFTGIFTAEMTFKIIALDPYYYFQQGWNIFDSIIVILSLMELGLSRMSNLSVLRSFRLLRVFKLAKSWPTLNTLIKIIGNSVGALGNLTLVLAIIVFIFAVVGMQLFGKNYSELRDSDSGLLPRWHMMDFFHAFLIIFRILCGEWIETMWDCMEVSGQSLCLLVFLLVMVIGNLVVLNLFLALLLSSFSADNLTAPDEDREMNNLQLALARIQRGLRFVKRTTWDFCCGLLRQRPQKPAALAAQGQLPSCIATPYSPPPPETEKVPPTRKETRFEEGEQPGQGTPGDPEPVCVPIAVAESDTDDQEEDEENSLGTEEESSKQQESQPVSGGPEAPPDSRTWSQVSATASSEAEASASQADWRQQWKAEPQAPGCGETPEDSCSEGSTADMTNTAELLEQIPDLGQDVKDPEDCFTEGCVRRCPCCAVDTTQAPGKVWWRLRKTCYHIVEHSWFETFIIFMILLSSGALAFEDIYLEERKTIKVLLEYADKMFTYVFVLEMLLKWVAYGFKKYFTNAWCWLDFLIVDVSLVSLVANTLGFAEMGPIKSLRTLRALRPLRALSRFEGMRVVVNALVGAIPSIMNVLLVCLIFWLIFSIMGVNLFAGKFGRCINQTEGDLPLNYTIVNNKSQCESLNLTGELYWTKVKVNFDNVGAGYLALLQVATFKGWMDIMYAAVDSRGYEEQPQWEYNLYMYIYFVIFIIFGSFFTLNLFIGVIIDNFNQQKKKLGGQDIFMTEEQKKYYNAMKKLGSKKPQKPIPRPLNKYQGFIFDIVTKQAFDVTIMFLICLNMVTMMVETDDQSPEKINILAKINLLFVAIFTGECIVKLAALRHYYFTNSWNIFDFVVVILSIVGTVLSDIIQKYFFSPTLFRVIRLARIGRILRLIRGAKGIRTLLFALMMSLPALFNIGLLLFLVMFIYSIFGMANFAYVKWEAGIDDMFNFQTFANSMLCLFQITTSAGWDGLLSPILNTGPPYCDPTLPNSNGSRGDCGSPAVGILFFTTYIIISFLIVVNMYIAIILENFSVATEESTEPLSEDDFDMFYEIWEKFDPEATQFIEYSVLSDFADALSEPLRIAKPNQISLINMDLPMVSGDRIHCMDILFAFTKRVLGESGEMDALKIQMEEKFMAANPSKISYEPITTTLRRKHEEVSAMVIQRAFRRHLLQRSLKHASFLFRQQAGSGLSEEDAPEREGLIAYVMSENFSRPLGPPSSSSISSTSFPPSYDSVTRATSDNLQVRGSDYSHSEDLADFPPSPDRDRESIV

With `CCCCC(C)C=C1CN2CCCC2C(C)(O)C1` (centres unmarked) [PTX 251D, pumiliotoxin (PTX 251D)], the “metabolites identified with CYP2D6” value on human recombinant CYP2D6 (90 minutes, one or two hydroxylation events) was “two metabolites were identified”. Besides, at human recombinant CYP2D6 (after 90 minutes, LC-MS/MS), the “clearance of PTX 251D in CYP2D6 metabolite discovery screen” value is listed as “completely cleared”. Also, the “inhibitory effect on Kir2.1” value on Kir2.1 is “no inhibitory effect”. For the same molecule, the “inhibitory effect on Cav1.2” value in series [1] was “no inhibitory effect”. In addition, the “inhibitory effect on NaV1.5” value in series [2] is “no inhibitory effect”. Moreover, in series [3] (intestines of frogs fed PTX 251D), the “expression of CYP2D6-like contig” value is “upregulated”. Also, the “CYP3A29 expression log2FC” value in series [3] (intestines, DHQ+PTX vs DHQ) was 5.72. In addition, in series [4], the “effect on voltage-gated sodium and potassium channels” value was “inhibits both types of channels”.
